Laboratory results reported in US12528784B2, “Alkynyl-(heteroaryl)-carboxamide HCN1 inhibitors” (Hoffmann-La Roche Inc., priority 2019, dated 2026).

Legend:
[1] = molecular target: T1, HCN2 (Homo sapiens, UniProt Q9UL51); assay: HCN2 automated patch clamp current inhibition assay (Ionworks Barracuda); type: cell-based; conditions: HEK-293 cells stably expressing HCN2; current inhibition during a hyperpolarizing pulse of -100 mV
T1 construct: expressed in transfected cells
T1 sequence (Q9UL51 1-889): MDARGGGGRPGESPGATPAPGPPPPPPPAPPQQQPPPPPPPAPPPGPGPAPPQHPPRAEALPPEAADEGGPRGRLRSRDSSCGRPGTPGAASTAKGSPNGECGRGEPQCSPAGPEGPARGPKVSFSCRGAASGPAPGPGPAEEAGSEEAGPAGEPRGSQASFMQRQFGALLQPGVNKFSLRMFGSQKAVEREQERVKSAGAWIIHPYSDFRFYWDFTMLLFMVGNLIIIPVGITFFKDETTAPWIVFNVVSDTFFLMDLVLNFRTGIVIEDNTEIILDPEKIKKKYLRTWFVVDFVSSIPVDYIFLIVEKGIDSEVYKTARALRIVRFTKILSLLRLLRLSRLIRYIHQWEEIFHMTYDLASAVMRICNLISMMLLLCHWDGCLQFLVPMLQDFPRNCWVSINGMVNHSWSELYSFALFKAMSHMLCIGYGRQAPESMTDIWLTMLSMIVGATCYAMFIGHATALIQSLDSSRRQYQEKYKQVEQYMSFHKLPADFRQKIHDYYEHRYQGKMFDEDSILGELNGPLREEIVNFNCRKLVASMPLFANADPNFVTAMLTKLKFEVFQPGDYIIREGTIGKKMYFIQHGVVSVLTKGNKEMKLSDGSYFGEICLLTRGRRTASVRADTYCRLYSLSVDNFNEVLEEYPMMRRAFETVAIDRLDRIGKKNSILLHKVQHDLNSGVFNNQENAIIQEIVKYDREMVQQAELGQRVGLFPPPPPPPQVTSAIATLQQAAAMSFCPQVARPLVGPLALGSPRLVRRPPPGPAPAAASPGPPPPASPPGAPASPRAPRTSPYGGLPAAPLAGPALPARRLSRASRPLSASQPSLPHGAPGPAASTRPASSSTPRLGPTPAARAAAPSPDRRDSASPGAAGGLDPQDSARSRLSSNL
Protocol: (§1) In vitro, high-throughput cellular electrophysiology was employed to detect voltage- and use-dependence of compounds in single concentration screening and IC50 determination for library and medicinal chemistry profiling compounds in 384 well plates.
(§2) Cell cultures were maintained in DMEM/F12 cell growth media containing FBS and appropriate antibiotics at 37° C., 5% CO2 for a maximum of 20 passages. At a time point of 40-72 hours prior to assay, the expression of HCN protein in the cells is induced by addition of tetracyclin. Cells may be incubated at 27° C. for 2-24 hours of induction. […] Cells were harvested at 80% confluency and resuspended in extracellular buffer and added to wells. A freshly prepared Escin solution was added to intracellular buffer and applied to establish whole cell recording via perforated patch clampling by APC.
(§3) Currents through activated channels were measured directly by APC by employing hyperpolarizing voltage steps. The activation window was increased and stabilized by the addition of cell permeable Br-cAMP. Baselines were established for both use- and voltage-dependence protocols using a −30 mV holding potential and multiple test pulses at −100 mV or by 20 mV steps from −120 to 0 mV, respectively. Test compounds were added after baseline recordings followed by a 10 min incubation, voltage-dependency protocol recording, and use-dependency recording. Data was corrected for baseline and rundown (well based) and normalized for % inhibition (plate based). Five previously reported HCN inhibitors of varying potencies and selectivities and zatebradine were used for run to run and plate to plate quality controls. […] Percent inhibition was analysed at −80, −100, −120 mV of the voltage-dependency protocol and at pulse 0 and 50 of the use-dependency protocols. Selectivity was assessed against HCN2, HCN3, and HCN4 overexpressing cell lines using similar methods. As HCN4 has a slower activation than the other HCN channels, activation was extended to achieve steady state activation.

[2] = molecular target: T2, HCN3 (Homo sapiens, UniProt Q9P1Z3); assay: HCN3 automated patch clamp current inhibition assay (Ionworks Barracuda); type: cell-based; conditions: HEK-293 cells stably expressing HCN3; current inhibition during a hyperpolarizing pulse of -100 mV
T2 construct: expressed in transfected cells
T2 sequence (Q9P1Z3 1-774): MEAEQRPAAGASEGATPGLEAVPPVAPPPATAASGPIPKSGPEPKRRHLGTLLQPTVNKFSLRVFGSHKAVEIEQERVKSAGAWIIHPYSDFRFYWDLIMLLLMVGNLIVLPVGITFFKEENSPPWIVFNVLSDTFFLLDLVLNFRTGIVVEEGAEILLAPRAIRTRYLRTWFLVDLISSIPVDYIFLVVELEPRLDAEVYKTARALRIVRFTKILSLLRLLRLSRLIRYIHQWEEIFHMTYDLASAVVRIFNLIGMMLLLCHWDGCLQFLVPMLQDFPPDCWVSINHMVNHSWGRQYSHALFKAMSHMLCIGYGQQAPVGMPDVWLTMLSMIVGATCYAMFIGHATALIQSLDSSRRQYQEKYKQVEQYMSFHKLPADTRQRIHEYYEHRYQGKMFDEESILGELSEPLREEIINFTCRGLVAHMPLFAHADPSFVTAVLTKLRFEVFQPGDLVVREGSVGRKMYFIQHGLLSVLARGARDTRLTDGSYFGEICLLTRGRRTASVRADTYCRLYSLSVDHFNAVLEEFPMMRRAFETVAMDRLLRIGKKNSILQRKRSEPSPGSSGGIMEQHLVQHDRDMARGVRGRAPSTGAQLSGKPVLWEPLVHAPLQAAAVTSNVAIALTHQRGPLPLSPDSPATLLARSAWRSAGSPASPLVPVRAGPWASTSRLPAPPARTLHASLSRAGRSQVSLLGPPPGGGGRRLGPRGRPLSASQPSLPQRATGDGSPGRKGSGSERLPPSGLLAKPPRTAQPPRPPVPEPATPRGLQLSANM
Protocol: as §1, §2, §3

IC50 [1]	IC50 [2]	SMILES
> 40 µM	38.4 µM	COc1ccc(-n2c(C(N)=O)nc(C#Cc3ccnc(Cl)c3C)c2C)cn1 [Example 27, 4-[2-(2-Chloro-3-methyl-4-pyridyl)ethynyl]-1-(6-methoxy-3-pyridyl)-5-methyl-imidazole-2-carboxamide]
> 40 µM	2.4 µM	Cc1cnc(-n2c(C(N)=O)nc(C#Cc3ccnc(Cl)c3C)c2C)cn1 [Example 23, 4-[2-(2-Chloro-3-methyl-4-pyridyl)ethynyl]-5-methyl-1-(5-methylpyrazin-2-yl)imidazole-2-carboxamide]
> 40 µM	> 40 µM	Cc1cccc(C#Cc2nc(C(N)=O)n(-c3ccc(C)nc3)c2C)c1 [Example 10, 5-Methyl-1-(6-methylpyridin-3-yl)-4-(m-tolylethynyl)-1H-imidazole-2-carboxamide]
> 40 µM	> 40 µM	Cc1ccc(-n2c(C(N)=O)nc(C#Cc3ccnc(Cl)c3)c2C)cc1 [Example 38, 4-[2-(2-Chloro-4-pyridyl)ethynyl]-5-methyl-1-(p-tolyl)imidazole-2-carboxamide]
> 40 µM	> 40 µM	Cc1ccc(-n2c(C(N)=O)nc(C#Cc3ccnc(Cl)c3)c2C)cn1 [Example 6, 4-(2-Chloro-pyridin-4-ylethynyl)-5-methyl-1-(6-methyl-pyridin-3-yl)-1H-imidazole-2-carboxylic Acid Amide]
> 40 µM	25.7 µM	Cc1ccc(-n2c(C(N)=O)nc(C#Cc3csc(Cl)c3)c2C)cn1 [Example 3, 4-[2-(5-Chlorothiophen-3-yl)ethynyl]-5-methyl-1-(6-methylpyridin-3-yl)imidazole-2-carboxamide]
30.6 µM	32.8 µM	Cc1ccc(-n2c(C(N)=O)nc(C#Cc3cccc(Cl)c3)c2C)cn1 [Example 4, 4-[2-(3-Chlorophenyl)ethynyl]-5-methyl-1-(6-methyl-3-pyridyl)imidazole-2-carboxamide]
> 40 µM	36.4 µM	COc1cccc(C#Cc2nc(C(N)=O)n(-c3ccc(C)nc3)c2C)c1 [Example 8, 4-((3-Methoxyphenyl)ethynyl)-5-methyl-1-(6-methylpyridin-3-yl)-1H-imidazole-2-carboxamide]
> 40 µM	> 40 µM	Cc1ccc(-n2c(C(N)=O)nc(C#Cc3cccc(C#N)c3)c2C)cn1 [Example 5, 4-((3-Cyanophenyl)ethynyl)-5-methyl-1-(6-methylpyridin-3-yl)-1H-imidazole-2-carboxamide]
> 40 µM	> 40 µM	Cc1ccc(-n2c(C(N)=O)nc(C#Cc3ccnc(Cl)c3C)c2C)cn1 [Example 1, 4-((2-Chloro-3-methylpyridin-4-yl)ethynyl)-5-methyl-1-(6-methylpyridin-3-yl)-1H-imidazole-2-carboxamide]
> 40 µM	> 40 µM	Cc1ccc(-c2c(C(N)=O)nc(C#Cc3ccnc(Cl)c3)n2C)cn1 [Example 32, 2-[2-(2-Chloro-4-pyridyl)ethynyl]-1-methyl-5-(6-methyl-3-pyridyl)imidazole-4-carboxamide]
> 40 µM	> 40 µM	Cc1c(C#Cc2ccnc(Cl)c2)nc(C(N)=O)n1-c1ccc(Cl)cc1 [Example 39, 1-(4-Chlorophenyl)-4-((2-chloropyridin-4-yl)ethynyl)-5-methyl-1H-imidazole-2-carboxamide]
> 40 µM	23.5 µM	Cc1ccc(-n2c(C(N)=O)cc(C#Cc3ccnc(Cl)c3)c2C)cn1 [Example 31, 4-[2-(2-Chloro-4-pyridyl)ethynyl]-5-methyl-1-(6-methyl-3-pyridyl)pyrrole-2-carboxamide]
> 40 µM	> 40 µM	Cc1ccc(-n2c(C(N)=O)nc(C#Cc3ccnc(Cl)c3C)c2C)nc1 [Example 28, 4-[2-(2-Chloro-3-methyl-4-pyridyl)ethynyl]-5-methyl-1-(5-methyl-2-pyridyl)imidazole-2-carboxamide]
> 40 µM	> 40 µM	NC(=O)c1nc(C#Cc2ccnc(Cl)c2)cn1-c1ccc(F)cc1 [Example 42, 4-(2-Chloro-pyridin-4-ylethynyl)-1-(4-fluoro-phenyl)-1H-imidazole-2-carboxylic Acid Amide]
> 40 µM	> 40 µM	Cc1c(C#Cc2nc(C(N)=O)n(-c3ccc(Cl)nc3)c2C)ccnc1Cl [Example 26, 4-[2-(2-Chloro-3-methyl-4-pyridyl)ethynyl]-1-(6-chloro-3-pyridyl)-5-methyl-imidazole-2-carboxamide]
> 40 µM	> 40 µM	Cc1ccc(-n2c(C(N)=O)nc(C#Cc3ccnc(Cl)c3F)c2C)cn1 [Example 2, 4-((2-Chloro-3-fluoropyridin-4-yl)ethynyl)-5-methyl-1-(6-methylpyridin-3-yl)-1H-imidazole-2-carboxamide]
